Measured values as given in patent US20140113904A1, “TREATMENT OF CANCER WITH TOR KINASE INHIBITORS” (SIGNAL PHARMACEUTICALS, LLC, priority 2012, published 2014).

Key:
DNA-PKcs = test: Total DNA-PKcs immunohistochemistry in PC3 tumors (Compound 2); assay type: in vivo, SCID mice; settings: 5 mg/kg QD for 6 days, 2 hours after the last dose
CD31 = CD31 immunohistochemistry in PC3 tumors (Compound 2); assay type: in vivo, SCID mice; settings: 5 mg/kg oral QD for 6 days, 2 hours after last dose
AKT (T308) = test: Phospho-AKT (T308) in PC-3 cell lysates, MSD (Compound 2); assay type: cell-based; settings: Homo sapiens; PC-3, 1 hour; read-out: PDK1 AKT (T308) IC50
Procedure: The direct substrate for mTORC1 was 4E-BP1(T46) and the indirect downstream substrate was S6RP (S235/S236). The direct substrate for mTORC2 was AKT (S473) and the indirect downstream substrates measured were GSK3β(S9) and PRAS40 (T246). Additionally, the phosphorylation status of AKT (T308), a phosphorylation site for PDK1, was monitored. Concentration-response curves were plotted and IC50 values determined. Cells were plated in 96-well flat bottom plates at the required density (PC-3 cells/well) and the cells were allowed to equilibrate at 37° C., 5% CO2 overnight. […] After the incubation period, the culture media was removed carefully with an aspirator. The plate was placed on ice and 50 μL of 1× Tris Lysis Buffer was added to each well. The plate was placed on a shaker at 4° C. for 1 hour to lyse the cells. At that point, the plate was either frozen at -80° C. for later analysis or immediately assayed for phosphoproteins as described below. To monitor interassay variability, a reference standard was included in the assay for PC-3 cells and the coefficient of variation for assay of […]) was 9.3% (n=50) and for assay of p-AKT (S473) was 28.6% (n=50). The assay plate was incubated with 150 μL of MSD Blocking Buffer for 1 hour with shaking at room temperature. […] Then 150 μL of 1×MSD Read Buffer T was added to each well. The plate was read on the SECTOR Imager plate reader.

pDNA-PK (S2056) = pDNA-PK (S2056) immunohistochemistry in PC3 tumors (Compound 2); assay type: in vivo, SCID mice; settings: 5 mg/kg QD for 6 days
CD-31 = CD-31 immunohistochemistry in PC3 tumors (Compound 1); assay type: in vivo, SCID mice; settings: 25 mg/kg oral QD for 6 days, 2 hours after last dose
Procedure: Two hours after the last dose of either vehicle, Compound 1, or rapamycin, the mice were euthanized and the tumors were dissected. The tumors were snap frozen in liquid nitrogen and processed for immunohistochemistry (IHC) and TUNEL.
Five to ten micron thick cryostat sections of tumor samples were used for IHC. The expression of a cell proliferation marker Ki-67 was evaluated by IHC using anti-Ki-67 antibody. Anti-CD-31 antibody was used to determine blood vessel density and is a measurement of tumor angiogenesis. Frozen sections were fixed in 4% paraformaldehyde for 10 minutes at room temperature, washed in PBS, blocked and permeabilized with normal goat serum and triton x-100. Sections were then incubated with primary antibody (overnight) followed by incubation with secondary antibody (60 minutes). […] The sections were visualized with a Nikon E800 microscope equipped with fluorescence detection equipment and a digital camera attached to a computer.
The tissues sections processed for apoptosis or immunostained for proliferating cells (Ki-67) or blood vessels were quantitated using Metamorph software. Using 20× objective, 5 different fields from each section, 2 to 4 sections from each tumor, and 3 to 4 tumors from each treatment group or control were used for quantitation. The area of interest was expressed as the percent threshold area of the total area.

| IC50 (AKT (T308)) [nM] | SMILES | positive threshold area stained for DNA-PKcs vs vehicle (DNA-PKcs) | reduction of CD31 positive blood vessels vs vehicle (CD31) [%] | reduction in threshold area positive for pDNA-PK (S2056) vs vehicle (pDNA-PK (S2056); 2 hours after the last dose) [%] | inhibition at 5 mg/kg (pDNA-PK (S2056); Mus musculus, through 24 hours after the last dose, read-out: pDNA-PK (S2056) inhibition (normalized to total DNA-PKcs)) [%] | CD-31 positive blood vessels vs vehicle (CD-31) |
| --- | --- | --- | --- | --- | --- | --- |
| 48 | CCN1C(=O)CNc2ncc(-c3ccc(-c4nc[nH]n4)nc3C)nc21 [Compound 2, 1-ethyl-7-(2-methyl-6-(1H-1,2,4-triazol-3-yl)pyridin-3-yl)-3,4-dihydropyrazino[2,3-b]pyrazin-2(1H)-one] | no significant difference | 50 | 98 | ~90 |  |
|  | CO[C@H]1CC[C@H](N2C(=O)CNc3ncc(-c4ccc(C(C)(C)O)nc4)nc32)CC1 [Compound 1, 7-(6-(2-hydroxypropan-2-yl)pyridin-3-yl)-1-((1r,4r)-4-methoxycyclohexyl)-3,4-dihydropyrazino-[2,3-b]pyrazin-2(1H)-one] |  |  |  |  | significantly (p<0.01) fewer |
